Measurements as given in patent US20150110716A1, “METHODS OF USING SPECT/CT ANALYSIS FOR STAGING CANCER” (Molecular Insight Pharmaceuticals, Inc., priority 2013, published 2015).
Several values for one entry are separate records, joined by “and”; a condition that tells them apart may be missing. Identical values can stand only once.

Tested on: high-grade prostate cancer in lobes and segments of the prostate gland
Test: Phase 1 study: SPECT/CT T/B ratio (threshold 5.9) vs step-section histopathology
Type: in vivo, human
Description: Protocol for Determining the Optimal Threshold Value for Discriminating Low Grade Prostate Cancer from a Higher Grade Prostate Cancer. Methods: SPECT/CT images of the pelvis including the prostate gland were obtained with a hybrid gamma camera in a 128×128 pixel matrix format with a 360 degree circular or elliptical orbit acquired into 120-128 frames. Raw images were reconstructed into 3D space with an iterative ordered subset estimation maximization algorithm corrected for attenuation and resolution recovery. […] Circular regions of interest with a diameter of approximately 20 pixels were placed on the obturator muscle adjacent to and to the left side (patient left) of the prostate gland. Counts within that region were recorded as background. Axial slices through the lower third, middle and upper third of the gland were selected to sample the apex, mid-gland and base of the prostate respectively. Radioactivity counts form the right and left side of the gland for each of the three slices were obtained for the same sized circular region of interest as background. The target to background ratio (T/B) was obtained by dividing the counts from prostate tissue by the background count. When large intense lesions originating in one side of the gland crossed the midline due to morphological changes to the anatomy, the area was scored according to the site of origin.
The suitability of a compound represented by Formula (1) to detect and discriminate between tumor tissue and normal tissue was tested in a Phase 1 study by comparing the SPECT/CT images obtained using a compound represented by Formula (1) with step-section histopathology in 8 patients (pts) undergoing radical prostatectomy. Briefly, 8 patients were administered 20mCi of the Formula (1) compound and SPECT/CT images of the pelvis were acquired 2 hours after injection. The T/B ratio was calculated for six segments of the prostate gland based on the images. Imaging results in segments and right and left lobes of the prostate were compared with Primary Gleason Grades (PGG) and total Gleason Scores (GS) recorded by a blinded pathologist. Sensitivity, specificity, accuracy for a T/B threshold of 5.9 were calculated by a receiver operator curve as explained above.

[1] = Lobe Gleason Score ≧7, T/B threshold 5.9
[2] = Segment Dominant Grade ≧4, T/B threshold 5.9
[3] = Segment Gleason Score ≧7, T/B threshold 5.9

Which results are given for “(OC-6-33)-tricarbonyl[N^2-{[(1S)-1,3-dicarboxypropyl]amino]carbamoyl}-L-γ-glutamyl-N^6,N^6-bis[(1-{2-[bis(carboxymethyl)amino]-2-oxoethyl]-1H-imidazol-2-yl-κN^3]methyl]-L-lysine-κN^6](^99mTc)(+)chloride [Formula (1)]”?
identification of presence of primary prostate cancer (8 patients, 20 mCi, SPECT/CT 2 hours after injection): correctly identified the presence of primary prostate cancer in all patients; AUC ± SE (ROC) (Lobe Gleason Score ≧7): 0.969 ± 0.04; Accuracy [1]: 93.8% and 93.8 (15/18) %; Sensitivity [1]: 92.3%; Specificity [1]: 100%; AUC ± SE (ROC) (Segment Dominant Grade ≧4): 0.942 ± 0.04; Accuracy [2]: 89.6% and 89.6 (43/48) %; Sensitivity [2]: 90.0%; Specificity [2]: 89.3%; AUC ± SE (ROC) (Segment Gleason Score ≧7): 0.87 ± 0.05; Accuracy [3]: 81.3% and 81.3 (39/48) %; Sensitivity [3]: 71.4%; Specificity [3]: 95%
